Source: the Deep4Chem optical property database
Where “and” joins values, the source holds several entries; their conditions need not be identical. Equal entries are not always repeated.

Assay: photoluminescence quantum yield (fraction); solvent given as SMILES
[1] = in c1ccc2c(c1)c1ccccc1n2-c1ccc(-c2ccc(-n3c4ccccc4c4ccccc43)cc2)cc1

`CCCCN(CCCC)c1ccc(C#Cc2cc(C#Cc3c(F)c(F)c(F)c(F)c3F)c(C#Cc3c(F)c(F)c(F)c(F)c3F)cc2C#Cc2ccc(N(CCCC)CCCC)cc2)cc1` gave a photoluminescence quantum yield (in ClCCl) of 0.17.
Work on `CCCC1=Cc2nc1ccc1[nH]c(cc1CCOC)c1nc(ccc3[nH]c2cc3CCC)C(CCOC)=C1` yielded a photoluminescence quantum yield (in Cc1ccccc1) of 0.54.
Compound `CC(=O)OC[C@H]1O[C@@H](OCC#Cc2ccc(C3=C4C(C)=CC(/C=C/c5ccc([N+](C)(C)C)cc5)=[N+]4[B-](F)(F)n4c(/C=C/c5ccc([N+](C)(C)C)cc5)cc(C)c43)cc2)[C@H](OC(C)=O)C(OC(C)=O)[C@@H]1OC(C)=O` (stereo not given in full) has a photoluminescence quantum yield (in CC#N) of 0.72.
`CC(C)[Si](C#Cc1ccc(C#C[Si](C(C)C)(C(C)C)C(C)C)c2nc3cc4c(cc3nc12)[C@H]1c2ccccc2[C@@H]4c2ccccc21)(C(C)C)C(C)C` gave a photoluminescence quantum yield (in CCCCCC) of 0.02 and a photoluminescence quantum yield (in ClCCl) of 0.02.
Work on `CCCCCCN1C(=O)c2cccc3c(-c4sc(-c5ccc6c7c(cccc57)C(=O)N(CCCCCC)C6=O)c5c4OCCO5)ccc(c23)C1=O` yielded a photoluminescence quantum yield (in ClC(Cl)Cl) of 0.22.
`CCCCN(CCCC)c1ccc(C#Cc2cc(C#Cc3ccc(N(CCCC)CCCC)cc3)c(C#Cc3ccc(C(F)(F)F)cc3)cc2C#Cc2ccc(C(F)(F)F)cc2)cc1` showed a photoluminescence quantum yield (in ClCCl) of 0.38.
`CN(C)c1ccc(C#Cc2cc3ccccc3oc2=O)cc1` gave a photoluminescence quantum yield (in ClCCl) of 0.009.
`CC1=N/C(=C\c2ccncc2)C(=O)N1C` gave a photoluminescence quantum yield (in C1COCCO1) of 0.165, a photoluminescence quantum yield (in CC#N) of 0.047 and a photoluminescence quantum yield (in CCO) of 0.033. For the same compound, the photoluminescence quantum yield (in CCOC(C)=O) was 0.089 and the photoluminescence quantum yield (in O) was 0.0065.
`c1ccc(-c2nc(-c3ccccc3)nc(-c3cc(-n4c5ccccc5c5ncccc54)c(-n4c5ccccc5c5ncccc54)c(-n4c5ccccc5c5ncccc54)c3)n2)cc1` showed a photoluminescence quantum yield (in O=P(c1ccccc1)(c1ccccc1)c1ccc2oc3ccc(P(=O)(c4ccccc4)c4ccccc4)cc3c2c1) of 0.54.
`COc1ccc(N2c3ccc4ccccc4c3-c3c4ccccc4cc[n+]3[B-]2(c2ccccc2)c2ccccc2)cc1` showed a photoluminescence quantum yield (in Cc1ccccc1) of 0.001.
`c1ccc(N(c2ccccc2)c2ccc(-c3ccc(-c4ccc(-c5ccc(-c6ccc(N(c7ccccc7)c7ccccc7)cc6)s5)c5nsnc45)s3)cc2)cc1` showed a photoluminescence quantum yield (in ClC(Cl)Cl) of 0.23.
Work on `Cc1ccc2c(c1)nnn2-c1c(C#N)c2c(N)ncnc2n1[C@H]1C[C@H](O)[C@@H](CO)O1` yielded a photoluminescence quantum yield (in CO) of 0.007.
With `CCCCOC(=O)c1cc(Cl)c2c3c(Cl)cc4c5c(cc(Cl)c(c6c(Cl)cc(C(=O)OCCCC)c1c26)c53)C(=O)N(c1c(C(C)C)cccc1C(C)C)C4=O` the photoluminescence quantum yield (in Cc1ccccc1) was 0.89.
In the case of `N#Cc1cc(-n2c3ccccc3c3ccccc32)c(-n2c3ccccc3c3ccccc32)cc1C#N`, the photoluminescence quantum yield (in C1CCOC1) is reported as 0.125, the photoluminescence quantum yield (in Cc1ccccc1) is reported as 0.465 and the photoluminescence quantum yield [1] is reported as 0.6.
`CC(C)(C)c1ccc(-c2c(-c3cccc(-n4c5ccccc5c5ccccc54)c3)c(C#N)c(-c3cccc(-n4c5ccccc5c5ccccc54)c3)c(-c3ccc(C(C)(C)C)cc3)c2-c2ccc(C(C)(C)C)cc2)cc1` gave a photoluminescence quantum yield (in C1CCOC1) of 0.064.
For `COc1c2ccccc2c(OC)c2c1c1ccccc1n2C`, the photoluminescence quantum yield (in C1CCCCC1) was 0.46, the photoluminescence quantum yield (in CC#N) was 0.55 and the photoluminescence quantum yield (in CO) was 0.39. It also gave a photoluminescence quantum yield (in ClCCl) of 0.41.
With `Cc1cc2cc(C)c3c4ccccc4[nH]c3c2s1` the photoluminescence quantum yield (in ClCCl) was 0.047.
`CCCCn1c(=O)c2cc3ccc4cccc5ccc(c2c1=O)c3c45` showed a photoluminescence quantum yield (in ClC(Cl)Cl) of 0.52.
`F[B-]1(F)n2c(-c3ccccc3)cnc2-c2cccc[n+]21` showed a photoluminescence quantum yield (in C1CCCCC1) of 0.33, a photoluminescence quantum yield (in C1CCOC1) of 0.22 and a photoluminescence quantum yield (in C1COCCO1) of 0.24. It also gave a photoluminescence quantum yield (in CC#N) of 0.21, a photoluminescence quantum yield (in CCCCCC) of 0.32 and a photoluminescence quantum yield (in CO) of 0.17. The photoluminescence quantum yield (in ClC(Cl)Cl) was 0.24.
In the case of `CCCCCCC(CCCCCC)N1C(=O)c2cccc3c(-c4ccccc4)ccc(c23)C1=O`, the photoluminescence quantum yield (in CCCCCC) is reported as 0.076, the photoluminescence quantum yield (in CCCCCCCCCCCCCC) is reported as 0.094 and the photoluminescence quantum yield (in CCCCCCCCCCCO) is reported as 0.76. The photoluminescence quantum yield (in CCCCO) was 0.95, the photoluminescence quantum yield (in CN(C)C=O) was 0.74 and the photoluminescence quantum yield (in Cc1ccccc1) was 0.5. It also gave a photoluminescence quantum yield (in ClC(Cl)Cl) of 0.78.
`CCC1=C(C)C(=O)n2c1cc1c(C)c(CC(=O)O)c(C)n1c2=O` gave a photoluminescence quantum yield (in CO) of 0.91, a photoluminescence quantum yield (in CS(C)=O) of 1 and a photoluminescence quantum yield (in ClC(Cl)Cl) of 0.96. It also gave a photoluminescence quantum yield (in c1ccccc1) of 0.88.
For `Oc1ccccc1-c1nc2c3cccnc3c3ncccc3c2n1-c1ccccc1`, the photoluminescence quantum yield (in Cc1ccccc1) was 0.001.
`CCC1=C(C)C2=C(C)c3cc(I)cn3[B-](F)(F)[N+]2=C1C` gave a photoluminescence quantum yield (in C1CCCCC1) of 0.13, a photoluminescence quantum yield (in CC(C)=O) of 0.087 and a photoluminescence quantum yield (in CCO) of 0.095. For the same compound, the photoluminescence quantum yield (in CCOC(C)=O) was 0.097, the photoluminescence quantum yield (in CO) was 0.086 and the photoluminescence quantum yield (in OCC(F)(F)F) was 0.075.
For `COC(=O)c1nc(-c2cccc3ccccc23)oc1C`, the photoluminescence quantum yield (in C1CCCCC1) was 0.58, the photoluminescence quantum yield (in CC#N) was 0.51 and the photoluminescence quantum yield (in CCO) was 0.5. It also gave a photoluminescence quantum yield (in CCOC(C)=O) of 0.54.
`CCCCCCOc1ccc2c(c1)-c1cc3c(cc1[Si]2(C)C)-c1ccccc1[Si]3(C)C` showed a photoluminescence quantum yield (in ClCCl) of 0.51.
With `Cc1cnc(NC(=O)C2=C(O)c3ccccc3S(=O)(=O)N2C)s1` the photoluminescence quantum yield (in C1COCCO1) was 0.0133, the photoluminescence quantum yield (in CC#N) was 0.0147 and the photoluminescence quantum yield (in CCCCO) was 0.0231. It also gave a photoluminescence quantum yield (in CCCO) of 0.0164, a photoluminescence quantum yield (in CCO) of 0.0106 and a photoluminescence quantum yield (in CCOC(C)=O) of 0.0113. The photoluminescence quantum yield (in CO) was 0.00754.
Work on `COc1cccc(OC)c1-c1c2ccc(=[N+]3CCNCC3)cc-2oc2cc(N3CCNCC3)ccc12` yielded a photoluminescence quantum yield (in CCO) of 0.008 and a photoluminescence quantum yield (in O) of 0.14.
`F[B-]1(F)n2c(c3c(c2-c2ccccc2)C2C=CC3CC2)C(c2ccccc2)=C2C3=C(C(c4ccccc4)=[N+]21)C1C=CC3CC1` (stereo not given) showed a photoluminescence quantum yield (in ClCCl) of 0.87.
Compound `COc1ccc(-c2cc3c4c(c2)CCc2cc(-c5ccc(OC)cc5)cc(c2-4)CC3)cc1` has a photoluminescence quantum yield (in C1CCCCC1) of 0.81, a photoluminescence quantum yield (in C1CCOC1) of 0.76 and a photoluminescence quantum yield (in CC#N) of 0.6. It also gave a photoluminescence quantum yield (in CCCCCC) of 0.92, a photoluminescence quantum yield (in CCO) of 0.53 and a photoluminescence quantum yield (in CN(C)C=O) of 0.55. For the same compound, the photoluminescence quantum yield (in CO) was 0.45, the photoluminescence quantum yield (in Cc1ccccc1) was 1 and the photoluminescence quantum yield (in ClC(Cl)Cl) was 0.39. For the same compound, the photoluminescence quantum yield (in ClCCl) was 1.
In the case of `CC(=O)c1c2c(cc3cc(N(C)C)ccc13)CCC2`, the photoluminescence quantum yield (in C1CCCCC1) is reported as 0.08, the photoluminescence quantum yield (in C1CCOC1) is reported as 0.34 and the photoluminescence quantum yield (in C1COCCO1) is reported as 0.38. The photoluminescence quantum yield (in CC#N) was 0.18, the photoluminescence quantum yield (in CCO) was 0.03 and the photoluminescence quantum yield (in CS(C)=O) was 0.37. The photoluminescence quantum yield (in Cc1ccccc1) was 0.25, the photoluminescence quantum yield (in ClC(Cl)Cl) was 0.41 and the photoluminescence quantum yield (in ClCCl) was 0.82.
Compound `N#Cc1cc(-n2c3ccccc3c3ccccc32)c(-n2c3ccccc3c3cc(Br)ccc32)cc1C#N` has a photoluminescence quantum yield (in C1CCOC1) of 0.061 and a photoluminescence quantum yield [1] of 0.555.
In the case of `Cc1cc2nc3c(=O)n(C)c(=O)nc-3n(C)c2cc1C`, the photoluminescence quantum yield (in CC#N) is reported as 0.17 and 0.47.
Compound `CC(C)[Si](C#Cc1ccc(C#C[Si](C(C)C)(C(C)C)C(C)C)c2nc3c(nc12)C1c2ccccc2C3c2ccccc21)(C(C)C)C(C)C` has a photoluminescence quantum yield (in CCCCCC) of 0.1.
Compound `CCCCCCCCCCn1nnc(-c2ccc(C#Cc3ccc(C#Cc4ccc(-c5nnn(CCCCCCCCCC)n5)cc4)c4nc5c6ccccc6c6ccccc6c5nc34)cc2)n1` has a photoluminescence quantum yield (in C1CCOC1) of 0.05, a photoluminescence quantum yield (in Cc1ccccc1) of 0.07 and a photoluminescence quantum yield (in ClCCl) of 0.04.
For `F[B-]1(F)n2c(ccc2-c2ccccc2)C(c2ccc(I)cc2)=C2C=CC(c3ccccc3)=[N+]21`, the photoluminescence quantum yield (in ClC(Cl)Cl) was 0.2.
With `Cc1cc(C)c(N(c2ccccc2)c2ccc(S(=O)(=O)c3ccc(S(=O)(=O)c4ccc(N(c5ccccc5)c5c(C)cc(C)cc5C)cc4)cc3)cc2)c(C)c1` the photoluminescence quantum yield (in Cc1ccccc1) was 0.79.
For `CC1(C)c2ccccc2N(c2ccc3c(c2)c2ccccc2c2nc4ccccc4nc32)c2ccccc21`, the photoluminescence quantum yield (in c1cc(-c2cccc(-n3c4ccccc4c4ccccc43)c2)cc(-n2c3ccccc3c3ccccc32)c1) was 0.42.
For `c1cc(N2CCCC2)ccn1`, the photoluminescence quantum yield (in CC1CCCCC1) was 0.09 and the photoluminescence quantum yield (in ClC(Cl)Cl) was 0.03.
In the case of `c1ccc2c3c(ccc2c1)-c1c2ccccc2cc2cccc-3c12`, the photoluminescence quantum yield (in CCCCCCC) is reported as 0.00088.
In the case of `CC1(C)OB(c2ccc3ccc4cccc5ccc2c3c45)OC1(C)C`, the photoluminescence quantum yield (in Cc1ccccc1) is reported as 0.81.
Compound `Cc1cc(C)n2c1C=C1c3ccccc3C(c3cccn3C)=[N+]1[B-]2(F)F` has a photoluminescence quantum yield (in C1CCOC1) of 0.96, a photoluminescence quantum yield (in CC#N) of 0.97 and a photoluminescence quantum yield (in CCCCCC) of 0.96. The photoluminescence quantum yield (in CO) was 0.98, the photoluminescence quantum yield (in Cc1ccccc1) was 0.94 and the photoluminescence quantum yield (in ClCCl) was 0.99.
In the case of `CC(C)(C)NC(=O)c1c([Si](C)(C)C)cc2ccc3cccc4ccc1c2c34`, the photoluminescence quantum yield (in ClC(Cl)Cl) is reported as 0.151.
For `COC(=O)c1c(NC(C)(C)C)oc(-c2ccccc2)c1C(=O)OC`, the photoluminescence quantum yield (in CC#N) was 0.1.
With `COc1ccc(/C=C/C(=O)c2ccccc2O)cc1OC` the photoluminescence quantum yield (in C1CCOC1) was 0, the photoluminescence quantum yield (in C1COCCO1) was 0.072 and the photoluminescence quantum yield (in CC#N) was 0.28. The photoluminescence quantum yield (in CCCO) was 0.37, the photoluminescence quantum yield (in CCO) was 0.15 and the photoluminescence quantum yield (in CN(C)C=O) was 0.36. For the same compound, the photoluminescence quantum yield (in CO) was 0.24, the photoluminescence quantum yield (in CS(C)=O) was 0.47 and the photoluminescence quantum yield (in ClC(Cl)Cl) was 0.053. It also gave a photoluminescence quantum yield (in ClCCl) of 0.037.
`Cc1cc2nc3cc(C)c(N)cc3[n+](-c3ccccc3)c2cc1N` showed a photoluminescence quantum yield (in CCO) of 0.292 and a photoluminescence quantum yield (in O) of 0.058.
`CN(C)c1ccc2nc(-c3ccccc3)c(=O)oc2c1` showed a photoluminescence quantum yield (in c1ccccc1) of 0.526.
`COC(=O)c1ccc(/C=C2\N=C(c3ccc([N+](=O)[O-])cc3)NC2=O)cc1` showed a photoluminescence quantum yield (in C1COCCO1) of 0.258.
`c1ccc(N(c2ccccc2)c2ccc(-c3ccc4c(c3)C3(c5ccccc5Oc5ccccc53)c3cc(-c5ccc(N(c6ccccc6)c6ccccc6)cc5)ccc3-4)cc2)cc1` gave a photoluminescence quantum yield (in ClCCl) of 0.91 and a photoluminescence quantum yield (in c1cc(-n2c3ccccc3c3ccccc32)cc(-n2c3ccccc3c3ccccc32)c1) of 0.9.
With `O=C1OC(=O)c2cc(Oc3ccccc3)c3c4ccc5c6c(cc(Oc7ccccc7)c(c7ccc1c2c73)c64)C(=O)OC5=O` the photoluminescence quantum yield (in C1CCOC1) was 0.5, the photoluminescence quantum yield (in CN1CCCC1=O) was 0.2 and the photoluminescence quantum yield (in CN(C)C=O) was 0.6.
`C(#Cc1cccc2nsnc12)c1ccc(-n2c3ccccc3c3ccccc32)cc1` gave a photoluminescence quantum yield (in ClCCl) of 0.54.
`CC(C)(C)OC(=O)NCCCC(=O)OCc1ccc2c3cccc4cccc(c5cccc1c52)c43` showed a photoluminescence quantum yield (in CCO) of 0.87.
